Legend:
ROS1 = target: T1, ROS1 (Homo sapiens, UniProt P08922); experiment: KINOMEscan panel screen; type: binding; conditions: read-out: Percent Control(%)
T1 construct: purchased DiscoveRx KINOMEscan (Ambit Biosciences)

FLT3(R834Q) = target: T2, FLT3(R834Q) (Homo sapiens, UniProt P36888, R834Q); experiment: KINOMEscan panel screen; type: binding; conditions: read-out: Percent Control(%)
T2 construct: purchased DiscoveRx KINOMEscan (Ambit Biosciences)

CDC2L1 = target: T3, CDC2L1 (Homo sapiens, UniProt P21127); experiment: KINOMEscan panel screen; type: binding; conditions: read-out: Percent Control(%)
T3 construct: purchased DiscoveRx KINOMEscan (Ambit Biosciences)

ERK8 = target: T4, ERK8 (Homo sapiens, UniProt Q8TD08); experiment: KINOMEscan panel screen; type: binding; conditions: read-out: Percent Control(%)
T4 construct: purchased DiscoveRx KINOMEscan (Ambit Biosciences)

NEK7 = target: T5, NEK7 (Homo sapiens, UniProt Q8TDX7); experiment: KINOMEscan panel screen; type: binding; conditions: read-out: Percent Control(%)
T5 construct: purchased DiscoveRx KINOMEscan (Ambit Biosciences)

SYK = target: T6, SYK (Homo sapiens, UniProt P43405); experiment: KINOMEscan panel screen; type: binding; conditions: read-out: Percent Control(%)
T6 construct: purchased DiscoveRx KINOMEscan (Ambit Biosciences)

PAK4 [1] = target: T7, PAK4 (Homo sapiens, UniProt O96013); experiment: KINOMEscan panel screen; type: binding; conditions: read-out: Percent Control(%)
T7 construct: DNA tag (qPCR read-out); purchased Ambit Biosciences (KINOMEscan service)

PIP5K2B = target: T8, PIP5K2B (Homo sapiens, UniProt P78356); experiment: KINOMEscan panel screen; type: binding; conditions: read-out: Percent Control(%)
T8 construct: purchased DiscoveRx KINOMEscan (Ambit Biosciences)

PFPK5(P.falciparum) = target: T9, PFPK5(P.falciparum) (Plasmodium falciparum, UniProt P61075); experiment: KINOMEscan panel screen; type: binding; conditions: read-out: Percent Control(%)
T9 construct: purchased DiscoveRx KINOMEscan (Ambit Biosciences)

Ramos = experiment: MTT cell viability assay; conditions: Homo sapiens, 72 h
CLK4 = target: T10, CLK4 (Homo sapiens, UniProt Q9HAZ1); experiment: KINOMEscan panel screen; type: binding; conditions: read-out: Percent Control(%)
T10 construct: purchased DiscoveRx KINOMEscan (Ambit Biosciences)

PIK3CA(C420R) = target: T11, PIK3CA(C420R) (Homo sapiens, UniProt P42336, C420R); experiment: KINOMEscan panel screen; type: binding; conditions: read-out: Percent Control(%)
T11 construct: purchased DiscoveRx KINOMEscan (Ambit Biosciences)

CDK4-cyclinD1 = target: T12, CDK4-cyclinD1 (Homo sapiens, UniProt P11802); experiment: KINOMEscan panel screen; type: binding; conditions: read-out: Percent Control(%)
T12 construct: purchased DiscoveRx KINOMEscan (Ambit Biosciences)

STK39 = target: T13, STK39 (Homo sapiens, UniProt Q9UEW8); experiment: KINOMEscan panel screen; type: binding; conditions: read-out: Percent Control(%)
T13 construct: purchased DiscoveRx KINOMEscan (Ambit Biosciences)

SIK = target: T14, SIK (Homo sapiens, UniProt P57059); experiment: KINOMEscan panel screen; type: binding; conditions: read-out: Percent Control(%)
T14 construct: purchased DiscoveRx KINOMEscan (Ambit Biosciences)

EPHA7 = target: T15, EPHA7 (Homo sapiens, UniProt Q15375); experiment: KINOMEscan panel screen; type: binding; conditions: read-out: Percent Control(%)
T15 construct: purchased DiscoveRx KINOMEscan (Ambit Biosciences)

EGFR(E746-A750del) = target: T16, EGFR(E746-A750del) (Homo sapiens, UniProt P00533, DEL746-750); experiment: KINOMEscan panel screen; type: binding; conditions: read-out: Percent Control(%)
T16 construct: purchased DiscoveRx KINOMEscan (Ambit Biosciences)

GRK1 = target: T17, GRK1 (Homo sapiens, UniProt Q15835); experiment: KINOMEscan panel screen; type: binding; conditions: read-out: Percent Control(%)
T17 construct: purchased DiscoveRx KINOMEscan (Ambit Biosciences)

BTK = BTK (Homo sapiens, UniProt Q06187); experiment: KINOMEscan kinase binding assay (Kd)
DCAMKL1 = target: T18, DCAMKL1 (Homo sapiens, UniProt O15075); experiment: KINOMEscan panel screen; type: binding; conditions: read-out: Percent Control(%)
T18 construct: purchased DiscoveRx KINOMEscan (Ambit Biosciences)

AKT1 = target: T19, AKT1 (Homo sapiens, UniProt P31749); experiment: KINOMEscan panel screen; type: binding; conditions: read-out: Percent Control(%)
T19 construct: purchased DiscoveRx KINOMEscan (Ambit Biosciences)

SLK = target: T20, SLK (Homo sapiens, UniProt Q9H2G2); experiment: KINOMEscan panel screen; type: binding; conditions: read-out: Percent Control(%)
T20 construct: purchased DiscoveRx KINOMEscan (Ambit Biosciences)

GRK4 = target: T21, GRK4 (Homo sapiens, UniProt P32298); experiment: KINOMEscan panel screen; type: binding; conditions: read-out: Percent Control(%)
T21 construct: purchased DiscoveRx KINOMEscan (Ambit Biosciences)

EGFR(T790M) = target: T22, EGFR(T790M) (Homo sapiens, UniProt P00533, T790M); experiment: KINOMEscan panel screen; type: binding; conditions: read-out: Percent Control(%)
T22 construct: purchased DiscoveRx KINOMEscan (Ambit Biosciences)

LZK = target: T23, LZK (Homo sapiens, UniProt O43283); experiment: KINOMEscan panel screen; type: binding; conditions: read-out: Percent Control(%)
T23 construct: purchased DiscoveRx KINOMEscan (Ambit Biosciences)

LTK = target: T24, LTK (Homo sapiens, UniProt P29376); experiment: KINOMEscan panel screen; type: binding; conditions: read-out: Percent Control(%)
T24 construct: purchased DiscoveRx KINOMEscan (Ambit Biosciences)

EPHA3 = target: T25, EPHA3 (Homo sapiens, UniProt P29320); experiment: KINOMEscan panel screen; type: binding; conditions: read-out: Percent Control(%)
T25 construct: purchased DiscoveRx KINOMEscan (Ambit Biosciences)

ASK1 = target: T26, ASK1 (Homo sapiens, UniProt Q99683); experiment: KINOMEscan panel screen; type: binding; conditions: read-out: Percent Control(%)
T26 construct: purchased DiscoveRx KINOMEscan (Ambit Biosciences)

MET(Y1235D) = target: T27, MET(Y1235D) (Homo sapiens, UniProt P08581, Y1235D); experiment: KINOMEscan panel screen; type: binding; conditions: read-out: Percent Control(%)
T27 construct: purchased DiscoveRx KINOMEscan (Ambit Biosciences)

p38-gamma = target: T28, p38-gamma (Homo sapiens, UniProt P53778); experiment: KINOMEscan panel screen; type: binding; conditions: read-out: Percent Control(%)
T28 construct: purchased DiscoveRx KINOMEscan (Ambit Biosciences)

MAPKAPK5 = target: T29, MAPKAPK5 (Homo sapiens, UniProt Q8IW41); experiment: KINOMEscan panel screen; type: binding; conditions: read-out: Percent Control(%)
T29 construct: purchased DiscoveRx KINOMEscan (Ambit Biosciences)

[2] = tested on: total β-catenin and active β-catenin in STF3a cells; experiment: Western blot of β-catenin in STF3a cells; type: cell-based; conditions: 10 μM or above, 24 h
FLT3 = conditions: previously identified FLT3 inhibitor; read-out: IC50 against FLT3; cited from earlier work
IGF1R = target: T30, IGF1R (Homo sapiens, UniProt P08069); design: method as in earlier work; conditions: Table S1; cited from earlier work
T30 construct: DNA tag (qPCR read-out); purchased Ambit Biosciences (KINOMEscan service)

PAK4 [3] = target: T7, PAK4; design: method as in earlier work; conditions: Table S1; cited from earlier work
CHEK1 = target: T31, CHEK1 (Homo sapiens, UniProt O14757); design: method as in earlier work; conditions: Table S1; cited from earlier work
T31 construct: purchased DiscoveRx KINOMEscan (Ambit Biosciences)
T31 sequence (O14757 1-476): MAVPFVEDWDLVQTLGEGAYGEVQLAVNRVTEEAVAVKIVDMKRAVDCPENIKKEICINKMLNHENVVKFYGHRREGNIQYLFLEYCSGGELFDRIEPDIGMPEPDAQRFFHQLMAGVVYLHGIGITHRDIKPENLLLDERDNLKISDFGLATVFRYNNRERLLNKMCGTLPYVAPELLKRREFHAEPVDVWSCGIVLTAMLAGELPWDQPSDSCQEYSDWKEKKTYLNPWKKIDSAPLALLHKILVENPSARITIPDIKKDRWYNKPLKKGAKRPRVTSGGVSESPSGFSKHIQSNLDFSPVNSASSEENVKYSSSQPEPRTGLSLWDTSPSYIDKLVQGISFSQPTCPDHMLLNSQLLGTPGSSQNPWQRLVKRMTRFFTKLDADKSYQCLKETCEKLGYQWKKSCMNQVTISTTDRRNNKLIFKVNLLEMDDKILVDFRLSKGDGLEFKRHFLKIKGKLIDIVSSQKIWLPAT

T7 sequence (O96013 whole entry): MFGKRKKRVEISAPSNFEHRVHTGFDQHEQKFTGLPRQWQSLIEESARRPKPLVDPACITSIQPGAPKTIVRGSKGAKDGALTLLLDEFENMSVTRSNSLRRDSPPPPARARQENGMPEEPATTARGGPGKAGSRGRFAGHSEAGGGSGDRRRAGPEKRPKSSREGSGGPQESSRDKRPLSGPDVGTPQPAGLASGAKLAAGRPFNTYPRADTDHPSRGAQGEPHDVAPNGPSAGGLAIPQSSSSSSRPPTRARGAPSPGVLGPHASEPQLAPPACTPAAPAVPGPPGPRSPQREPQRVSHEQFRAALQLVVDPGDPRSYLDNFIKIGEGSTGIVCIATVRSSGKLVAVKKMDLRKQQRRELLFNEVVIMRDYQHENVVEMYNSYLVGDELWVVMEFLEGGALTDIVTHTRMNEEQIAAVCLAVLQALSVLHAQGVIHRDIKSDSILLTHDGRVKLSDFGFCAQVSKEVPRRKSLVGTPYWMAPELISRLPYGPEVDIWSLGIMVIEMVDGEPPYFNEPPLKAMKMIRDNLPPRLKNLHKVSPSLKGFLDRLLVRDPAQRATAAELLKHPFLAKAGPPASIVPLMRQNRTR
T22 sequence (P00533 25-1210 T790M): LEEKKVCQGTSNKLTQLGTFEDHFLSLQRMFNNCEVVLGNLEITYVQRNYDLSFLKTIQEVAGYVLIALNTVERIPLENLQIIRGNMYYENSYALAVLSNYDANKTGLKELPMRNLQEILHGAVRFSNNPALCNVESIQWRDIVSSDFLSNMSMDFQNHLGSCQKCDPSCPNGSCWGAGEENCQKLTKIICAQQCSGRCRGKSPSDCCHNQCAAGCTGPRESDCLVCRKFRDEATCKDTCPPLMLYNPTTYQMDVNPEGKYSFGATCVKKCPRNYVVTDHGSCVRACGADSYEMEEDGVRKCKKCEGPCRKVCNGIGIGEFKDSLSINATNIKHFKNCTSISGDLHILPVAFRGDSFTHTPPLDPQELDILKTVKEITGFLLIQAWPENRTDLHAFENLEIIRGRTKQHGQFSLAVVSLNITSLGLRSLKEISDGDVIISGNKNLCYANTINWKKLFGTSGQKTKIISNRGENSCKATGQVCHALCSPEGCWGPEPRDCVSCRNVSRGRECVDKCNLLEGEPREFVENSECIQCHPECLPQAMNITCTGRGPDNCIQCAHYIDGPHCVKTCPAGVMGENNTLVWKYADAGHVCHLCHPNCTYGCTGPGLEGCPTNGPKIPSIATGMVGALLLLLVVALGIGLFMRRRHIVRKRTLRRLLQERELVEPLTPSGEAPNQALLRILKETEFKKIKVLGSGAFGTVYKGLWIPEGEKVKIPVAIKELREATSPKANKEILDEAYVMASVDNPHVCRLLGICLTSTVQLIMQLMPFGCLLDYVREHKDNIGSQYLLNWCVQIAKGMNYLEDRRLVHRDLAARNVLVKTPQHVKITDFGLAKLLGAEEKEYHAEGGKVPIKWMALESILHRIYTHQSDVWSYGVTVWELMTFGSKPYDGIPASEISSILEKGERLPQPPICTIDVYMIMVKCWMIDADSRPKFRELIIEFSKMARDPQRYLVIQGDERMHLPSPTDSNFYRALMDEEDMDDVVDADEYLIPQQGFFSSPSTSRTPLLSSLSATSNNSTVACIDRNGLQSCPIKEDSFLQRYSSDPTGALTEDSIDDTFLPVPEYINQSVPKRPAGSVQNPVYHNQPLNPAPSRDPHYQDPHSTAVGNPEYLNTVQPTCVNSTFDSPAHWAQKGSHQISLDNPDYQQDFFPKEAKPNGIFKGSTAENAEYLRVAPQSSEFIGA
T20 sequence (Q9H2G2 whole entry): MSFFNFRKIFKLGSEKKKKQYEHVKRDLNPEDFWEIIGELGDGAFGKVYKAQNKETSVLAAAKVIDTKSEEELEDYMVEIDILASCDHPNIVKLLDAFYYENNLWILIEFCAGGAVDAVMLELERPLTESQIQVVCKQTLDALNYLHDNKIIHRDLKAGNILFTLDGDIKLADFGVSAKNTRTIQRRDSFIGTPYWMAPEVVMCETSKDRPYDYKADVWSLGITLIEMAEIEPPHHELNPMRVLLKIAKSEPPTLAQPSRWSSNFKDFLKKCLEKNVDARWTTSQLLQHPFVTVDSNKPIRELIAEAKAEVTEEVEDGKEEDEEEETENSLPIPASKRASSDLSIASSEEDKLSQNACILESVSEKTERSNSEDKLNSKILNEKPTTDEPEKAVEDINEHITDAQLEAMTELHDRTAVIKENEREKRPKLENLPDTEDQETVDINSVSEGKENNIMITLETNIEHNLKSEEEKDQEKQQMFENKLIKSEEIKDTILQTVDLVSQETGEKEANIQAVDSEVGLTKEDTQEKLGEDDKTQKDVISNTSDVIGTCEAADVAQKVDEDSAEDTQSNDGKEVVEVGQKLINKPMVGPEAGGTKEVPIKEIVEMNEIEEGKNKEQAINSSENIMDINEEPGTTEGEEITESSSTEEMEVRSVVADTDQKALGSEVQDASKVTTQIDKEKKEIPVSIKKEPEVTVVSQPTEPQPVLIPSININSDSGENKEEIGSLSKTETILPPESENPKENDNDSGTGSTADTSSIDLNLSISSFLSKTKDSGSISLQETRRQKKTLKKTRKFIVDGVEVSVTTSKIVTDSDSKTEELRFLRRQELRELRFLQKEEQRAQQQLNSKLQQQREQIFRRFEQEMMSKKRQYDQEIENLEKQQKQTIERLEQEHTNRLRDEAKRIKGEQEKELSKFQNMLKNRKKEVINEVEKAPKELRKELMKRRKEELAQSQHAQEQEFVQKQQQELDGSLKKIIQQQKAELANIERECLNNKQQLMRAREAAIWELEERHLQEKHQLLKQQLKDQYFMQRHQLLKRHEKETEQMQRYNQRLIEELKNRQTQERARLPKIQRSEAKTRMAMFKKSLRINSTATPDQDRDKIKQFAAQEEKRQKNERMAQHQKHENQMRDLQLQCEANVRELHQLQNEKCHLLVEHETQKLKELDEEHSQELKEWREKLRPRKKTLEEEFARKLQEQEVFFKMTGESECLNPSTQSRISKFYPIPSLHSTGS
T12 sequence (P11802 whole entry): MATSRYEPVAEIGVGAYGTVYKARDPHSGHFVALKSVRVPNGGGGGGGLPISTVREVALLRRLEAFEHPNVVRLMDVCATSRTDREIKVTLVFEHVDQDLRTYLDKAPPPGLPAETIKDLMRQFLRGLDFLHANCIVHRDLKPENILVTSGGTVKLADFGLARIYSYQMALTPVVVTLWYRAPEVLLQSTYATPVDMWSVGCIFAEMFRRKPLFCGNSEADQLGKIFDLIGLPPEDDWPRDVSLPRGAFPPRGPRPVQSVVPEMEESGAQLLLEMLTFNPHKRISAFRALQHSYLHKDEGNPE
T12 sequence (P24385 whole entry partner): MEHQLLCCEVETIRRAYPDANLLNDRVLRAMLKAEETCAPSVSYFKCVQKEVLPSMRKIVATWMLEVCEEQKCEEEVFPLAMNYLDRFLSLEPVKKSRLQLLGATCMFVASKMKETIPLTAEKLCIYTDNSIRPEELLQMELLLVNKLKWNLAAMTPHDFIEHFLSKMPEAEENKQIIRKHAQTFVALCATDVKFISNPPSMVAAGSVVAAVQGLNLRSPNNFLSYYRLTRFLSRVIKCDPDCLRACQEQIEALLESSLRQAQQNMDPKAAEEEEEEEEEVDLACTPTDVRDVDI
T9 sequence (P61075 whole entry): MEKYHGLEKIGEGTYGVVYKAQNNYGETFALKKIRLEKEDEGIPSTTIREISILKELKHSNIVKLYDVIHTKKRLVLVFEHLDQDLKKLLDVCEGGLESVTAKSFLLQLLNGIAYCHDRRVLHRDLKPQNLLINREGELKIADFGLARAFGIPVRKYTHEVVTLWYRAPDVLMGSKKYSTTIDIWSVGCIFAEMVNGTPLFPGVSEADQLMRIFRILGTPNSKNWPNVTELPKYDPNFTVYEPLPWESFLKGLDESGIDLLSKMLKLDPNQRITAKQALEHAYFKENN
T4 sequence (Q8TD08 whole entry): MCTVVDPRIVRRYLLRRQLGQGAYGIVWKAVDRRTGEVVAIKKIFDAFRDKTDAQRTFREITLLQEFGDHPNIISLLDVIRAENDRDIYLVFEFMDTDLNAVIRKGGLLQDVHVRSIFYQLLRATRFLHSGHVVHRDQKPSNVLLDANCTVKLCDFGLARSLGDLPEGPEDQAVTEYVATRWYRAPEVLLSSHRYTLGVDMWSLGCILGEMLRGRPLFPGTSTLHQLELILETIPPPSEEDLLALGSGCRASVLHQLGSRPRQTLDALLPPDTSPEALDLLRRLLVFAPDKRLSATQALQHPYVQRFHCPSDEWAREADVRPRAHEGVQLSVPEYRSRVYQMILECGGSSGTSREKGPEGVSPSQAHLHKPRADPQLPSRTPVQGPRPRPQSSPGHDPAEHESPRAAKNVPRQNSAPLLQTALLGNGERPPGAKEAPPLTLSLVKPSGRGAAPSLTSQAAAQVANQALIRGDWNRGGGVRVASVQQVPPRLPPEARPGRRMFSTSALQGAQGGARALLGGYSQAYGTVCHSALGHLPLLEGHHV
T5 sequence (Q8TDX7 whole entry): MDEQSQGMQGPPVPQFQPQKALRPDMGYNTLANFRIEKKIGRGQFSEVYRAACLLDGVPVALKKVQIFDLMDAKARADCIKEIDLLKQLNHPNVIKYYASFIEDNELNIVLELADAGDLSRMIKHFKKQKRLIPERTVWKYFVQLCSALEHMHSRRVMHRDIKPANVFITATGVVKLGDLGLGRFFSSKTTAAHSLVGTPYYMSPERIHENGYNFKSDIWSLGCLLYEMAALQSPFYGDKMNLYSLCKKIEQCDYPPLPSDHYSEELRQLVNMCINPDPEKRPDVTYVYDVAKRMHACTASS
T27 sequence (P08581 1078-1345 Y1235D limits assumed): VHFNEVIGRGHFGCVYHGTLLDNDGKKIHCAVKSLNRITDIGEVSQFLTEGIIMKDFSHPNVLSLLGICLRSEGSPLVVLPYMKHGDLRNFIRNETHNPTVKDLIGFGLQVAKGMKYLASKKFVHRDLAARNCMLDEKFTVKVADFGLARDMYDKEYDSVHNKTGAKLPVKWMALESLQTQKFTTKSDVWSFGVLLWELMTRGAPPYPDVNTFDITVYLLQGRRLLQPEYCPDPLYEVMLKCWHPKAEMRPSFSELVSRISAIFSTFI

SMILES: CC(C)(C)c1cc(NC(=O)Nc2ccc(Oc3ncnc4[nH]ncc34)c(F)c2)no1 [SKLB-677, 1-(4-(1H-pyrazolo[3,4-d]pyrimidin-4-yloxy)-3-fluorophenyl)-3-(5-tert-butylisoxazol-3-yl)urea]
- remaining binding at 10 µM (ROS1): 0.1%
- remaining binding at 10 µM (FLT3(R834Q)): 2.8%
- remaining binding at 10 µM (CDC2L1): 66%
- remaining binding at 10 µM (ERK8): 0.8%
- remaining binding at 10 µM (NEK7): 48%
- remaining binding at 10 µM (SYK): 25%
- remaining binding at 10 µM (PAK4 [1]): 100%
- remaining binding at 10 µM (PIP5K2B): 98%
- remaining binding at 10 µM (PFPK5(P.falciparum)): 100%
- IC50 (Ramos): 8.4 µM
- remaining binding at 10 µM (CLK4): 9.6%
- remaining binding at 10 µM (PIK3CA(C420R)): 96%
- remaining binding at 10 µM (CDK4-cyclinD1): 29%
- remaining binding at 10 µM (STK39): 100%
- remaining binding at 10 µM (SIK): 97%
- remaining binding at 10 µM (EPHA7): 0%
- remaining binding at 10 µM (EGFR(E746-A750del)): 37%
- remaining binding at 10 µM (GRK1): 97%
- Kd (BTK): > 10 µM
- remaining binding at 10 µM (DCAMKL1): 100%
- remaining binding at 10 µM (AKT1): 100%
- remaining binding at 10 µM (SLK): 0.2%
- remaining binding at 10 µM (GRK4): 45%
- remaining binding at 10 µM (EGFR(T790M)): 74%
- remaining binding at 10 µM (LZK): 93%
- remaining binding at 10 µM (LTK): 1.2%
- remaining binding at 10 µM (EPHA3): 24%
- remaining binding at 10 µM (ASK1): 57%
- remaining binding at 10 µM (MET(Y1235D)): 5.4%
- remaining binding at 10 µM (p38-gamma): 3.7%
- remaining binding at 10 µM (MAPKAPK5): 97%
- protein levels of the total β-catenin and active β-catenin [2]: slightly decreased

SMILES: O=C(Nc1ccc(Oc2ncnc3[nH]ncc23)cc1)Nc1ccc(Cl)c(C(F)(F)F)c1 [Compound 1, 1-(4-(1H-pyrazolo[3,4-d]pyrimidin-4-yloxy)phenyl)-3-(4-chloro-3-(trifluoromethyl)phenyl)urea]
- IC50 (FLT3): 0.039 µM
- IC50 (IGF1R): > 10 µM
- IC50 (PAK4 [3]): > 10 µM
- IC50 (CHEK1): > 10 µM
